± gives the standard deviation of the averaged measurements.

In this assay the test system is RD. The assay can be described thus: relative viability vs DMSO control (72 h) (fraction); higher = more viable cells. The method, boiled down: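 Sarcoma cell lines in 384-well plates, seeded to reach 80–90% confluence, were given compound after 24 h and kept 72 h at 37 °C, 5% CO2, with 0.1% DMSO vehicle and a 5 µM positive control. Relative viability came from ATPLite as percent growth, averaged over up to triplicate wells. On the rescaled values, 1 equals full and 0 equals none.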

As to `C=CC(=O)Nc1cccc(Oc2nc(Nc3ccc(N4CCN(C)CC4)cc3)nc3ccsc23)c1` [Olmutinib], the relative viability reads like this: (0.00017 µM) 1.02 ± 0.051; (0.00051 µM) 1.04 ± 0.045; (0.00152 µM) 1.03 ± 0.046; (0.00457 µM) 1.04 ± 0.032; (0.01372 µM) 1.03 ± 0.068; (0.04115 µM) 1.03 ± 0.056. Further, the relative viability reads like this: (0.1235 µM) 1.04 ± 0.051; (0.3704 µM) 1.07 ± 0.058; (1.111 µM) 1.01 ± 0.051; (3.333 µM) 0.892 ± 0.08; (10 µM) 0.174 ± 0.025.

As to `CNC(=O)c1cc(Oc2ccc(NC(=O)Nc3ccc(Cl)c(C(F)(F)F)c3)c(F)c2)ccn1` [Regorafenib], the relative viability is 1.06 ± 0.017 (0.00017 µM); 1.11 ± 0.028 (0.00051 µM); 1.13 ± 0.052 (0.00152 µM); 1.14 ± 0.089 (0.00457 µM); 1.13 ± 0.075 (0.01372 µM); 1.14 ± 0.063 (0.04115 µM). The relative viability reads like this: (0.1235 µM) 1.12 ± 0.04; (0.3704 µM) 1.01 ± 0.058; (1.111 µM) 0.877 ± 0.069; (3.333 µM) 0.787 ± 0.05; (10 µM) 0.558 ± 0.048.

In the case of `COc1cc2c(cc1O)CCN[C@]21CS[C@@H]2c3c(OC(C)=O)c(C)c4c(c3[C@H](COC1=O)N1[C@@H]2[C@H]2c3c(cc(C)c(OC)c3O)C[C@@H]([C@@H]1O)N2C)OCO4` [Trabectedin], the relative viability worked out at 1.08 ± 0.055 (2 pM); 1.08 ± 0.068 (5 pM); 1.08 ± 0.048 (15 pM); 1 ± 0.045 (50 pM); 0.678 ± 0.022 (0.00014 µM); 0.166 ± 0.14 (0.00041 µM). In addition, the relative viability runs as follows: (0.0012 µM) 0.158 ± 0.0037; (0.0037 µM) 0.128 ± 0.0033; (0.011 µM) 0.104 ± 0.01; (200 fM) 1.1 ± 0.043; (600 fM) 1.08 ± 0.015.

The values are drawn from the supplement of paper PMC10883282.
